Experimental data as given in PMC8119466, “A screen of FDA-approved drugs identifies inhibitors of protein tyrosine phosphatase 4A3 (PTP4A3 or PRL-3)” (Scientific Reports, 2021).
Counter-ions that a name gives are not always drawn.

Legend:
Format in all cases: biochemical
Details in all cases: FDA-approved drug screen; compared to DMSO
recombinant PRL-3 = biological target: T1, recombinant PRL-3 (Homo sapiens, UniProt O75365); assay: In vitro phosphatase assay (DiFMUP hydrolysis), PRL-3; further: test concentration or dose not given here
T1 construct: 6xHis (N, cleaved yes); made in house; host or cells: E. coli One Shot BL21 Star

recombinant PRL-1 = biological target: T2, recombinant PRL-1 (Homo sapiens, UniProt Q93096); assay: In vitro phosphatase assay (DiFMUP hydrolysis), PRL-1; further: test concentration or dose not given here
T2 construct: 6xHis (N, cleaved yes); made in house; host or cells: E. coli One Shot BL21 Star
T2 sequence (Q93096 1-173): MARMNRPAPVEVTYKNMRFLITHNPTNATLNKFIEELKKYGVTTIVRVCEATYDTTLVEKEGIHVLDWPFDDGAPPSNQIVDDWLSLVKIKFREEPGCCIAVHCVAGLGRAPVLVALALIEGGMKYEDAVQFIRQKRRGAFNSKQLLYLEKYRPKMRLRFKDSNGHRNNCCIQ

recombinant PRL-2 = biological target: T3, recombinant PRL-2 (Homo sapiens, UniProt Q12974); assay: In vitro phosphatase assay (DiFMUP hydrolysis), PRL-2;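 further: PRL-2 activity read as DiFMUP hydrolysis after 20 min at room temperature with drug, enzyme first pre-reduced at 4 °C for 20 min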
T3 construct: 6xHis (N, cleaved yes); made in house; host or cells: E. coli One Shot BL21 Star
T3 sequence (Q12974 1-167): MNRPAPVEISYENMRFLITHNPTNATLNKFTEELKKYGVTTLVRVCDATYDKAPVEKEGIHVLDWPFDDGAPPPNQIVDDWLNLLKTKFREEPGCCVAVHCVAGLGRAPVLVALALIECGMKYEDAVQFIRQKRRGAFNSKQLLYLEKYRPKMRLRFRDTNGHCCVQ

T1 sequence (O75365 whole entry): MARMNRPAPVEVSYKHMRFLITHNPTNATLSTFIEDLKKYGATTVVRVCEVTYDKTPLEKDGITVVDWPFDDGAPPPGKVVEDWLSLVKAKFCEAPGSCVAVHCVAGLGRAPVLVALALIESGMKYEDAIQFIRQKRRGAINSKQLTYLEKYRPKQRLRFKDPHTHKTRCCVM

SMILES | % Phosphatase Activity (compared to DMSO) PRL-3 (recombinant PRL-3) [%] | % Phosphatase Activity (compared to DMSO) PRL-1 (recombinant PRL-1) [%] | % Phosphatase Activity (compared to DMSO) PRL-2 (recombinant PRL-2) [%]
CN(C)[C@@H]1C(O)=C(C(N)=O)C(=O)[C@@]2(O)C(O)=C3C(=O)c4c(O)cccc4[C@@](C)(O)[C@H]3[C@H](O)[C@@H]12 [Oxytetracycline Dihydrate] | 98 | 98 | 101
O=C(O)/C=C/c1ccc(Cn2ccnc2)cc1 [Ozagrel] | 76 | 96 | 101
CC(C)Oc1ccc(-c2nc(-c3cccc4c3CC[C@@H]4NCCO)no2)cc1C#N [Ozanimod (RPC1063)] | 88 | 95 | 101
CN(C)Cc1c(C(=O)NCCOc2ccc(C(=O)NO)cc2)oc2ccccc12 [PCI-24781 (Abexinostat)] | 86 | 100 | 96
CC(=O)O[C@H]1C(=O)[C@@]2(C)[C@H]([C@H](OC(=O)c3ccccc3)[C@]3(O)C[C@H](OC(=O)[C@H](O)[C@@H](NC(=O)c4ccccc4)c4ccccc4)C(C)=C1C3(C)C)[C@]1(OC(C)=O)CO[C@@H]1C[C@@H]2O [Paclitaxel] | 76 | 94 | 97
C1=N/C2=N/c3ccc(OCCN4CCCC4)c(c3)COC/C=C/COCc3cccc(c3)C(=C1)N2 [Pacritinib (SB1518)] | 78 | 95 | 98
CC(=O)c1c(C)c2cnc(Nc3ccc(N4CCNCC4)cn3)nc2n(C2CCCC2)c1=O.O=S(=O)(O)CCO [Palbociclib (PD0332991) Isethionate] | 100 | 75 | 61
CC(=O)c1c(C)c2cnc(Nc3ccc(N4CCNCC4)cn3)nc2n(C2CCCC2)c1=O.Cl [Palbociclib (PD-0332991) HCl] | 102 | 68 | 61
Cc1nc2n(c(=O)c1CCN1CCC(c3noc4cc(F)ccc34)CC1)CCCC2O (stereo not drawn) [Paliperidone] | 75 | 102 | 103
O=C1c2cccc3c2[C@H](CCC3)CN1[C@@H]1CN2CCC1CC2 [Palonosetron HCl] | 117 | 90 | 96
NCCC(O)(P(=O)([O-])O)P(=O)([O-])O.[Na+].[Na+] [Pamidronate Disodium] | 91 | 98 | 80
Cc1[nH]c2ccccc2c1CCNCc1ccc(/C=C/C(=O)NO)cc1 [Panobinostat (LBH589)] | 83 | 95 | 102
COc1ccnc(C[S+]([O-])c2nc3ccc(OC(F)F)cc3[nH]2)c1OC (stereo not drawn) [Pantoprazole sodium] | 88 | 97 | 98
CCC(=O)NS(=O)(=O)c1ccc(-c2c(-c3ccccc3)noc2C)cc1 [Parecoxib] | 74 | 98 | 84
NC[C@@H]1O[C@H](O[C@H]2[C@@H](O)[C@H](O[C@@H]3[C@@H](O)[C@H](N)C[C@H](N)[C@H]3O[C@H]3O[C@H](CO)[C@@H](O)[C@H](O)[C@H]3N)O[C@@H]2CO)[C@H](N)[C@@H](O)[C@@H]1O [Paromomycin Sulfate] | 112 | 93 | 110
Cl.Fc1ccc([C@@H]2CCNC[C@H]2COc2ccc3c(c2)OCO3)cc1 [Paroxetine HCl] | 95 | 90 | 128
NNC(=O)c1ccncc1.Nc1ccc(C(=O)O)c(O)c1 [Pasiniazid] | 82 | 91 | 97
Cc1ccc(Nc2nccc(N(C)c3ccc4c(C)n(C)nc4c3)n2)cc1S(N)(=O)=O.Cl [Pazopanib HCl] | 82 | 86 | 83
Cc1ccc(Nc2nccc(N(C)c3ccc4c(C)n(C)nc4c3)n2)cc1S(N)(=O)=O [Pazopanib] | 89 | 97 | 100
CCOc1cc2ncc(C#N)c(Nc3ccc(F)c(Cl)c3)c2cc1NC(=O)/C=C/CN(C)C [Pelitinib (EKB-569)] | 97 | 111 | 120

SMILES | % Phosphatase Activity (compared to DMSO) PRL-3 (recombinant PRL-3) [%] | % Phosphatase Activity (compared to DMSO) PRL-1 (recombinant PRL-1) [%] | % Phosphatase Activity (compared to DMSO) PRL-2 (recombinant PRL-2) [%]
Nc1nc2[nH]cc(CCc3ccc(C(=O)N[C@@H](CCC(=O)O)C(=O)O)cc3)c2c(=O)[nH]1 [Pemetrexed] | 98 | 92 | 86
Cc1cccn2c(=O)c(-c3nnn[nH]3)cnc12 [Pemirolast potassium] | 195 | 330 | 301
Nc1nc2c(ncn2CCC(CO)CO)c(=O)[nH]1 [Penciclovir] | 74 | 98 | 95
OC1(c2ccc(Cl)c(C(F)(F)F)c2)CCN(CCCC(c2ccc(F)cc2)c2ccc(F)cc2)CC1 [Penfluridol] | 89 | 100 | 128
CC(C)(S)[C@@H](N)C(=O)O [Penicillamine] | 97 | 85 | 100
N=C(N)c1ccc(OCCCCCOc2ccc(C(=N)N)cc2)cc1 [Pentamidine] | 95 | 113 | 116
CC(=O)CCCCn1c(=O)c2c(ncn2C)n(C)c1=O [Pentoxifylline] | 92 | 85 | 92
N#Cc1ccccc1-c1cc(-c2ccccn2)cn(-c2ccccc2)c1=O [Perampanel] | 451 | 488 | 376
CCCN1C[C@H](CSC)C[C@@H]2c3cccc4[nH]cc(c34)C[C@H]21 [Pergolide mesylate] | 90 | 109 | 119
CCC[C@H](N[C@@H](C)C(=O)N1[C@H](C(=O)O)C[C@@H]2CCCC[C@@H]21)C(=O)OCC [Perindopril Erbumine] | 96 | 88 | 84
FC(F)(F)c1ccc(CNc2ccc(Cc3c[nH]c4ncc(Cl)cc34)cn2)cn1 [Pexidartinib (PLX3397)] | 101 | 102 | 100
Cc1ccc(-n2nc(C(C)(C)C)cc2NC(=O)NCc2cc(F)ccc2Oc2ccc3c(cnn3CCO)c2)cc1 [Pexmetinib (ARRY-614)] | 117 | 106 | 103
Nc1ccc(/N=N/c2ccccc2)c(N)n1 [Phenazopyridine HCl] | 55 | 64 | 61
[H]/N=C(/N)N/C(=N/[H])NCCc1ccccc1 [Phenformin HCl] | 89 | 114 | 120
O=C1c2ccccc2C(=O)C1c1ccccc1 [Phenindione] | 84 | 93 | 100
CN(C)CCC(c1ccccc1)c1ccccn1 (stereo not drawn) [Pheniramine Maleate] | 70 | 98 | 104
CC(COc1ccccc1)N(CCCl)Cc1ccccc1 (stereo not drawn) [Phenoxybenzamine HCl] | 81 | 106 | 112
Cc1ccc(N(CC2=NCCN2)c2cccc(O)c2)cc1 [Phentolamine Mesylate] | 90 | 92 | 117
CCCCC1C(=O)N(c2ccccc2)N(c2ccccc2)C1=O [Phenylbutazone] | 81 | 104 | 84
